Reference: the supplement of paper PMC10307832

Tests used:
Experiment in all cases: relative viability (nuclei count vs DMSO), 5 days (fraction); higher = more cells survive
Omipalisib = compound: COc1ncc(-c2ccc3nccc(-c4ccnnc4)c3c2)cc1NS(=O)(=O)c1ccc(F)cc1F [Omipalisib]
In short: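 Acceptance criteria were a control CV below 25% and at least one doubling per plate. Lung cancer cell lines in 1536-well plates got five library-drug doses (not always all listed) √10 apart by pinning and were left 5 days with no medium change. Viability divides treated-well nuclei by vehicle-well nuclei and is the median across plates. Nuclei were counted by MetaXpress from 4× Hoechst images.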

Omipalisib + Palbociclib = compound: COc1ncc(-c2ccc3nccc(-c4ccnnc4)c3c2)cc1NS(=O)(=O)c1ccc(F)cc1F [Omipalisib] + CC(=O)c1c(C)c2cnc(Nc3ccc(N4CCNCC4)cn3)nc2n(C2CCCC2)c1=O [Palbociclib] (partner 0.5 µM)
In short: (§1)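 A single step with final 0.05% Triton X-100, 1% formaldehyde and 1 ug/ml Hoechst fixed the cells and stained nuclei 5 days after treatment. Lung cancer cell lines in 1536-well plates had been treated by pin tool the day after seeding with one drug alone or a fixed anchor-drug dose plus five library-drug doses (not always all listed) in √10 steps, and nuclei were counted on 4× images. Relative viability is the ratio of nuclei in treated wells to nuclei in vehicle wells, taken as the median of duplicate plates.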

Omipalisib + Decitabine = compound: COc1ncc(-c2ccc3nccc(-c4ccnnc4)c3c2)cc1NS(=O)(=O)c1ccc(F)cc1F [Omipalisib] + Nc1ncn([C@H]2C[C@H](O)[C@@H](CO)O2)c(=O)n1 [Decitabine] (partner 2 µM)
In short: as §1

Row | Cell Line | relative viability (Omipalisib; 0.0003 µM) | relative viability (Omipalisib; 0.003 µM) | relative viability (Omipalisib; 0.03 µM) | relative viability (Omipalisib + Palbociclib; first compound 0.0003 µM) | relative viability (Omipalisib + Palbociclib; first compound 0.003 µM) | relative viability (Omipalisib + Palbociclib; first compound 0.03 µM) | relative viability (Omipalisib + Decitabine; first compound 0.0003 µM) | relative viability (Omipalisib + Decitabine; first compound 0.003 µM) | relative viability (Omipalisib + Decitabine; first compound 0.03 µM)
1 | 201T | 0.986 | 1.03 | 0.729 | 0.325 | 0.343 | 0.27 | 0.816 | 0.809 | 0.53
2 | HCC-78 | 0.937 | 0.666 | 0.345 | 0.48 | 0.411 | 0.414 | 0.623 | 0.462 | 0.344
3 | NCI-H596 | 0.944 | 0.673 | 0.421 |  |  |  | 0.846 | 0.75 | 0.506
4 | HCC-366 | 0.938 | 0.853 | 0.366 | 0.329 | 0.202 | 0.0493 | 0.285 | 0.217 | 0.105
5 | NCI-H520 | 0.787 | 0.588 | 0.252 | 0.203 | 0.152 | 0.145 | 0.51 | 0.369 | 0.233
6 | RERF-LC-KJ | 0.942 | 0.733 | 0.571 | 1.04 | 0.846 | 0.555 | 0.637 | 0.502 | 0.434
7 | NCI-H1915 | 1.04 | 0.996 | 0.952 | 0.509 | 0.483 | 0.446 | 0.248 | 0.249 | 0.227
8 | NCI-H3122 | 0.971 | 0.956 | 0.538 | 0.168 | 0.153 | 0.144 | 0.319 | 0.258 | 0.139
9 | NCI-H661 | 1 | 0.923 | 0.82 | 0.403 | 0.363 | 0.313 | 0.522 | 0.453 | 0.422
10 | CAL-12T | 1.12 | 1.1 | 0.594 | 0.533 | 0.415 | 0.142 |  |  | 
11 | NCI-H647 | 0.949 | 0.696 | 0.42 | 0.263 | 0.21 | 0.179 | 0.34 | 0.248 | 0.378
12 | HOP-62 | 1.03 | 1.06 | 0.753 | 0.468 | 0.426 | 0.292 | 0.211 | 0.264 | 0.199
13 | NCI-H2228 | 0.858 | 0.682 | 0.352 | 0.839 | 0.47 | 0.234 |  |  | 
14 | NCI-H441 | 0.832 | 0.574 | 0.427 | 0.213 | 0.19 | 0.139 | 0.24 | 0.206 | 0.227
15 | COR-L23 | 1.01 | 1 | 0.631 | 0.286 | 0.246 | 0.212 | 0.433 | 0.355 | 0.296
16 | LXF-289 | 1.04 | 1.08 | 0.943 | 0.62 | 0.574 | 0.416 | 0.365 | 0.371 | 0.281
17 | NCI-H1734 | 0.918 | 0.648 | 0.397 | 0.278 | 0.238 | 0.205 | 0.442 | 0.331 | 0.347
18 | NCI-H2009 | 1.06 | 1.02 | 0.755 | 0.204 | 0.176 | 0.179 | 0.355 | 0.389 | 0.324

Row | Cell Line | relative viability (Omipalisib; 0.0003 µM) | relative viability (Omipalisib; 0.003 µM) | relative viability (Omipalisib; 0.03 µM) | relative viability (Omipalisib + Palbociclib; first compound 0.0003 µM) | relative viability (Omipalisib + Palbociclib; first compound 0.003 µM) | relative viability (Omipalisib + Palbociclib; first compound 0.03 µM) | relative viability (Omipalisib + Decitabine; first compound 0.0003 µM) | relative viability (Omipalisib + Decitabine; first compound 0.003 µM) | relative viability (Omipalisib + Decitabine; first compound 0.03 µM)
19 | NCI-H1395 | 0.901 | 0.706 | 0.649 | 0.623 | 0.563 | 0.464 | 0.661 | 0.625 | 0.567
20 | NCI-H2342 | 0.741 | 0.63 | 0.534 | 0.459 | 0.442 | 0.406 | 0.589 | 0.479 | 0.408
21 | NCI-H838 | 0.957 | 0.737 | 0.453 | 0.221 | 0.184 | 0.146 | 0.471 | 0.391 | 0.268
22 | NCI-H2405 | 0.982 | 0.681 | 0.351 | 0.507 | 0.392 | 0.312 | 0.701 | 0.482 | 0.308
23 | NCI-H1355 | 0.945 | 0.664 | 0.578 | 0.358 | 0.239 | 0.198 | 0.366 | 0.326 | 0.242
24 | NCI-H1993 | 0.806 | 0.632 | 0.623 | 0.547 | 0.391 | 0.393 | 0.6 | 0.483 | 0.447
25 | NCI-H1755 | 1.01 | 0.901 | 0.737 | 0.428 | 0.421 | 0.362 | 0.714 | 0.555 | 0.485
26 | ChaGo-K-1 | 0.978 | 0.917 | 0.919 | 0.853 | 0.843 | 0.708 | 0.494 | 0.448 | 0.47
27 | NCI-H650 | 0.876 | 0.745 | 0.51 | 0.297 | 0.275 | 0.222 | 0.375 | 0.257 | 0.321
28 | SW 900 | 0.886 | 0.768 | 0.591 | 0.522 | 0.444 | 0.278 | 0.386 | 0.344 | 0.392
29 | NCI-H2347 | 0.972 | 0.978 | 0.579 | 0.393 | 0.432 | 0.4 | 0.538 | 0.523 | 0.464
30 | SK-LU-1 | 0.914 | 0.778 | 0.569 | 0.387 | 0.329 | 0.306 | 0.633 | 0.548 | 0.494
31 | NCI-H322M | 0.892 | 0.728 | 0.622 | 0.427 | 0.446 | 0.449 | 0.711 | 0.643 | 0.527
32 | NCI-H2023 | 0.847 | 0.535 | 0.203 | 0.383 | 0.213 | 0.0832 | 0.177 | 0.215 | 0.16
33 | LCLC-97TM1 | 1.03 | 0.586 | 0.203 | 0.202 | 0.14 | 0.0751 | 0.216 | 0.168 | 0.161
34 | SW 1573 | 0.731 | 0.713 | 0.492 | 0.335 | 0.325 | 0.191 | 0.306 | 0.241 | 0.239
35 | HCC-15 | 0.973 | 0.691 | 0.7 | 0.748 | 0.614 | 0.521 | 0.591 | 0.394 | 0.372
36 | NCI-H727 | 1.05 | 0.68 | 0.544 | 0.644 | 0.487 | 0.552 | 0.778 | 0.712 | 0.755
